The experiment relates to NanoLuc-HaloTag. Put plainly: Direct and two-step labeling with azide-DBCO pair, fluorescence imaging on SDS/PAGE gel. Conditions: 50 uM compound 1 hour, then 100 uM DBCO-FAM 4 hours. The experiment is classed as biochemical. Here is the method:
In Example 26, a dye-appended suicide substrate is shown by fluorescence imaging to label NanoLuc. In this example, a suicide substrate with an appended azide is shown to label a NanoLuc-HaloTag protein in a two-step procedure in which the second step is copper-free click chemistry with a DBCO appended FAM dye. […] Structures of the compounds used in this example are illustrated in FIG. 10A.
0.5 uM NanoLuc-HaloTag in 100 mM Tris pH 8.0 was incubated for 1 hour with 50 uM of: Tube 1—JRW-1505; Tube 2—FAM-HaloTag ligand; Tube 3—JRW-0926; Tube 4—JRW-0975; Tube 5—JRW-1022; and Tube 6—SE-azide. In the second step, 100 uM DBCO-FAM was incubated for 4 hours in Tubes 1, 4, 5, and 6, followed by SDS/PAGE gel for all samples (FIG. 10B). The fluorescence (473ex) (Cy2 filter set) of bands corresponding to the size of NanoLuc-HaloTag was read and quantified.
In a second experiment, 1.5 uM NanoLuc-HaloTag in 100 mM Tris (or DPBS buffer) pH 8.0 was incubated with 50 uM of JRW-0975, FAM-HaloTag ligand, JRW-0926, JRW-1022, or SE-azide for 1 hour. In the second step, 100 uM DBCO-FAM was incubated for 4 hours with tubes 3, 4, and 5, followed by SDS/PAGE gel (FIG. 11A). The fluorescence (473ex) (Cy2 filter set) of bands corresponding to the size of NanoLuc-HaloTag was read and quantified (FIG. 11B).

`[N-]=[N+]=NCCOCCOCCC(=O)NCCOCCOCCCCCCCl` [JRW-1505, 3-(2-(2-azidoethoxy)ethoxy)-N-(2-(2-((6-chlorohexyl)oxy)ethoxy)ethyl)propanamide]: the “Two-step labeling with DBCO-FAM” value is “two-step labeling occurs”.
